Test results taken from US8039505B2, “Compounds for modulating T-cells” (University of Utah Research Foundation, priority 2007, dated 2011).
“Also recorded” adds a separate entry of the source.

Key:
human T-ALL line Jurkat = experiment: MTT cell viability, Jurkat; assay type: cell-based; settings: 48 hours
Procedure: FIG. 3 is a graph showing viability of human T-ALL lines incubated with individual compounds. Specifically, two human ALL lines (B-ALL: RS4; 11 and T-ALL: Jurkat) were incubated on day 0 with serum or with 2.5 μM of the indicated compounds (except for aphidicolin 1 μM and cyclosporine 1.5 μM). 48 hours later, cells were tested for viability by MTT test. Results from the mean of 3 to 4 experiments carried out in triplicate (individual dots) and the mean of all experiments (horizontal bar) are indicated. Results are shown for compounds without a cell cycle effect (B). Viability of untreated cells was arbitrarily set at 1.0.
Cell culture experiments: Cells were incubated at 37° C. in 75 mL flasks in RPMI containing 10% FBS, 5 mL Penicillin/Streptomycin (100×) in a total volume of […]. Cells were counted using a hemocytometer, and 25,000 cells were plated in each well of a 96-well plate. Compounds and controls were added and cells were harvested after a 48 hr incubation period.
To assess effects of compounds, cell viability was measured. […] After crystal solubilization with DMSO a blue color (that is proportional to the amount of crystal formed) can be measured. […] Final optical density (OD) obtained from formazan formation was calculated OD=L1-L2 (background). […]

[1] = 14-day twice daily gavage in healthy CD-1 male mice; assay type: in vivo; settings: gavage 50, 15 and 5 mg/kg twice per day, 14 days
Procedure: Healthy CD-1 male mice were also gavage-fed with compound 3 at concentrations of 50 mg/kg, 15 mg/kg and 5 mg/kg twice per day. […] Hematological, biochemical, immunological and pathological specimen are currently being evaluated.

[2] = test system: cell cycle in zebrafish embryos; experiment: Cell cycle profiles in zebrafish embryos (propidium iodide, flow cytometry); assay type: in vivo; settings: zebrafish embryos incubated from 4 hours post fertilization overnight, DNA content by flow cytometry
Procedure: FIG. 2 is a group of cell cycle profiles of active compounds tested in 24 hour zebrafish embryos. Specifically, embryos incubated with E3 fishwater (panel A), hydroxyurea (panel B), compound C4 (panel C), and compound C3 (panel D) are shown. After overnight incubation, single cell solution of embryos was prepared and incubated with propidium iodide. Samples were then subjected to flow cytometry to determine DNA content (X axis). Small arrowheads below the X-axis are placed beneath the diploid (G1) n=2 peak, and the tetraploid (G2/M) n=4 peaks. Cells between these two peaks are in S phase. Cells to the left of the G1 peak (sub G1 peak) have lost chromosomes (n<2), and are presumably dying (indicated as % debris in the right hand legend of each panel). Relative numbers of cells (Y-axis) in the different phases of the cell cycle are given on the right side of each panel.
All of these compounds were tested for effects on the cell cycle in zebrafish embryos. Zebrafish embryos were incubated at 4 hours post fertilization with compounds or controls. After overnight incubation in compounds, single cell solution of embryos was prepared and incubated with propidium iodide. Samples were then subjected to flow cytometry to determine DNA content. […] Examples are depicted in FIG. 2.
In FIG. 2, embryos incubated with (A) E3 fishwater, (B) hydroxyurea, (C) compound C4, and (D) C3 are shown. Diploid (G1, n=2) and tetraploid (G2/M, n=4) peaks are identified on the X-axis. Small arrowheads below the X-axis are placed beneath the dipoid (G1) n=2 peak, and the tetraploid (G2/M) n=4 peaks. Cells between these two peaks are in S phase. Cells to the left of the G1 peak (sub G1 peak) have lost chromosomes (n<2) and are presumably dying (indicated as % debris in the right hand legend of each panel). Relative numbers of cells (Y axis) in the different phases of the cell cycle are given on the right side of each panel.

## C(=NNc1cccc2cccnc12)c1c[nH]c2ccccc12 [Compound C3, 1H-indole-3-carbaldehyde quinolin-8-ylhydrazone]
Human T-ALL line Jurkat; 2.5 μM, FIG. 3
  Response of T cell leukemia line (viability, MTT): responded similarly
Human T-ALL line Jurkat; MTT
  Effective concentration killing Jurkat in vitro: 2.5 µM
[1]
  Adverse effects: No adverse effects were observed
[2]
  Effect on the cell cycle: lack of cell cycle effects
[2]; listed as 3
  Effect on the cell cycle: did not have any appreciable effect on the cell cycle; also recorded: does not affect the cell cycle
